In US12723063B2, “GIPR-agonist compounds” (Eli Lilly and Company, priority 2019, dated 2026) one finds EC50 data, which are given here for six compounds.

Each structure is given as a SMILES string. *1 amine or outer side, *2 acyl side, *3 side chain or, on linkers, in order; H or OH if unused. Where a SMILES comes first, the peptide text is derived from it. Side-chain parts run from the residue outwards. [ ]: non-standard residue; d: D form. The star is where a group is joined. C20 diacid = O=C(O)CCCCCCCCCCCCCCCCCCC(=O)*; γGlu = O=C(O)[C@H](CCC(=O)[*:2])N[*:1]; 4Pal = N[C@@H](Cc1ccncc1)C(=O)O; αMeL = CC(C)C[C@](C)(N)C(=O)O; Iva = CC[C@](C)(N)C(=O)O; Orn = NCCC[C@H](N)C(=O)O; AEEA = NCCOCCOCC(=O)O; Aib = CC(C)(N)C(=O)O Bounds are passed on as bounds.

Common to all, as to assay: cAMP functional assay (HTRF) in HEK293 cells in presence of 0.1% casein
Common to all, as to type: cell-based
(TR-FRET usually uses a lanthanide donor and a delayed reading to cut background.)

In assay [1] the target is T1, human glucose-dependent insulinotropic peptide receptor (GIPR) (Homo sapiens, UniProt P48546).
T1 construct: expressed in transfected cells; host or cells: HEK293
T1 sequence (P48546 22-466): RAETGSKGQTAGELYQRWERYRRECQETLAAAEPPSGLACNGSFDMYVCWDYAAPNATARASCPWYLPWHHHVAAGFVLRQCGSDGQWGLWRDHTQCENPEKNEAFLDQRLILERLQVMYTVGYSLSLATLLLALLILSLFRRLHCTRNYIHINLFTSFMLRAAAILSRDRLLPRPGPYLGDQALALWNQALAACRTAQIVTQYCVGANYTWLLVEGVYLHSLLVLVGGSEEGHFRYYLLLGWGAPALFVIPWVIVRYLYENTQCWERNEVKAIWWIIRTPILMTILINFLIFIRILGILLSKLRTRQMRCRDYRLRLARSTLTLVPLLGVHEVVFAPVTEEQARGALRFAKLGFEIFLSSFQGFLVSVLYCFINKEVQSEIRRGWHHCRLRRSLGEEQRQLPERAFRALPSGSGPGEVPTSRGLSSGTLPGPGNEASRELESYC
To be noted: HEK293 cells expressing human GIPR, geometric mean, read-out: hGIPR cAMP Rel EC50 nM (SEM, n).

The target of assay [2] is T2, human GLP-1 receptor (GLP-1R) (Homo sapiens, UniProt P43220).
T2 construct: expressed in transfected cells; host or cells: HEK293
To be noted: HEK293 cells expressing human GLP-1R, geometric mean, read-out: hGLP1R cAMP Rel EC50 nM (SEM, n).

The target in assay [3] is T3, human glucagon receptor (GcgR) (Homo sapiens, UniProt P47871).
T3 construct: expressed in transfected cells; host or cells: HEK293
To be noted: HEK293 cells expressing human GcgR, geometric mean, read-out: hGcgR cAMP Rel EC50 nM (SEM, n).

T2 sequence (P43220 24-463): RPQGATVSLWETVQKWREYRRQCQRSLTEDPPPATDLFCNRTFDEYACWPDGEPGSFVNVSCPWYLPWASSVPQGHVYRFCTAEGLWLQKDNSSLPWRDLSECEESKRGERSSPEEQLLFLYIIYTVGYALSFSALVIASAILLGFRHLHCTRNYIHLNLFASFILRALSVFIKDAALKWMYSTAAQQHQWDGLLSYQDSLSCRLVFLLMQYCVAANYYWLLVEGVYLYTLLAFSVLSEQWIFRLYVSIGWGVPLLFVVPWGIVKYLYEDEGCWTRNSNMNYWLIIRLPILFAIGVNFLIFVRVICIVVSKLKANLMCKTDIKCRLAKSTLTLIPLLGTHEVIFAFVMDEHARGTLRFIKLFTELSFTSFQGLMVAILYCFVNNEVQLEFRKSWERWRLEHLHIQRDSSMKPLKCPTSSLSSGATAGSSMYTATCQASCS
T3 sequence (P47871 26-477): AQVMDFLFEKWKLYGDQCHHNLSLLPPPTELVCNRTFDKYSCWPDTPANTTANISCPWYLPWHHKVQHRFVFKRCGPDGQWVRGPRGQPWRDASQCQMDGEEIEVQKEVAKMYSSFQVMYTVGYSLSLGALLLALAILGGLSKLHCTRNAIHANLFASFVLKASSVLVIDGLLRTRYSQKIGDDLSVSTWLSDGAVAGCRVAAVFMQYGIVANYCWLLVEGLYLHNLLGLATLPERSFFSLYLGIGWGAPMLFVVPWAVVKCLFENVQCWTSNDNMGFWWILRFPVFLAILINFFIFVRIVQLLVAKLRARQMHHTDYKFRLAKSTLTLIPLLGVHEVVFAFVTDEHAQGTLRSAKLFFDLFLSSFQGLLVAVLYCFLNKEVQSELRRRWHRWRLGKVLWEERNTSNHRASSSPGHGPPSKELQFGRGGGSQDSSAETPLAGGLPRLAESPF

One may read the EC50 as the concentration that produces a half-maximal response. Regarding `CC[C@H](C)[C@H](NC(=O)[C@H](CO)NC(=O)[C@H](Cc1ccc(O)cc1)NC(=O)[C@H](CC(=O)O)NC(=O)[C@H](CO)NC(=O)[C@@H](NC(=O)[C@](C)(CC)NC(=O)[C@@H](NC(=O)CNC(=O)[C@H](CCC(=O)O)NC(=O)C(C)(C)NC(=O)[C@@H](N)Cc1ccc(O)cc1)[C@@H](C)O)[C@@H](C)CC)C(=O)N[C@@](C)(CC(C)C)C(=O)N[C@@H](CC(C)C)C(=O)N[C@@H](CC(=O)O)C(=O)N[C@@H](CCCN)C(=O)N[C@@H](CCCCNC(=O)COCCOCCNC(=O)COCCOCCNC(=O)CC[C@H](NC(=O)CCCCCCCCCCCCCCCCCCC(=O)O)C(=O)O)C(=O)N[C@@H](Cc1c[nH]cn1)C(=O)N[C@@H](CCC(N)=O)C(=O)NC(C)(C)C(=O)N[C@@H](CC(=O)O)C(=O)N[C@@H](Cc1ccccc1)C(=O)N[C@H](C(=O)N[C@@H](CCC(=O)O)C(=O)N[C@@H](Cc1ccncc1)C(=O)N[C@@H](CC(C)C)C(=O)N[C@@H](CC(C)C)C(=O)N[C@@H](CCC(=O)O)C(=O)NCC(=O)NCC(=O)N1CCC[C@H]1C(=O)N[C@@H](CO)C(=O)N[C@@H](CO)C(=O)NCC(=O)N[C@@H](C)C(=O)N1CCC[C@H]1C(=O)N1CCC[C@H]1C(=O)N1CCC[C@H]1C(=O)N[C@@H](CO)C(N)=O)C(C)C` [Example 76] (H-Y[Aib]EGT[Iva]ISDYSI[αMeL]LD[Orn]K([AEEA-AEEA-γGlu-C20 diacid])HQ[Aib]DFVE[4Pal]LLEGGPSSGAPPPS-NH2), the EC50 is 0.0154 nM in assay [1], above 5000 nM in assay [2] and 1200 nM in assay [3].

Turning to `CC[C@H](C)[C@H](NC(=O)[C@H](CO)NC(=O)[C@H](Cc1ccc(O)cc1)NC(=O)[C@H](CC(=O)O)NC(=O)[C@H](CO)NC(=O)[C@@H](NC(=O)[C@](C)(CC)NC(=O)[C@@H](NC(=O)CNC(=O)[C@H](CCC(=O)O)NC(=O)C(C)(C)NC(=O)[C@@H](N)Cc1ccc(O)cc1)[C@@H](C)O)[C@@H](C)CC)C(=O)N[C@@](C)(CC(C)C)C(=O)N[C@@H](CC(C)C)C(=O)N[C@@H](CC(=O)O)C(=O)N[C@@H](CCCN)C(=O)N[C@@H](CCCCNC(=O)COCCOCCNC(=O)COCCOCCNC(=O)CC[C@H](NC(=O)CCCCCCCCCCCCCCCCCCC(=O)O)C(=O)O)C(=O)N[C@@H](Cc1c[nH]cn1)C(=O)N[C@@H](CCC(N)=O)C(=O)NC(C)(C)C(=O)N[C@@H](CC(=O)O)C(=O)N[C@@H](Cc1ccccc1)C(=O)N[C@H](C(=O)N[C@@H](CCC(=O)O)C(=O)N[C@@H](Cc1ccncc1)C(=O)N[C@@H](CC(C)C)C(=O)N[C@@H](CC(C)C)C(=O)N[C@@H](CCC(=O)O)C(=O)N[C@H](C(=O)NCC(=O)N1CCC[C@H]1C(=O)N[C@@H](CO)C(=O)N[C@@H](CO)C(=O)NCC(=O)N[C@@H](C)C(=O)N1CCC[C@H]1C(=O)N1CCC[C@H]1C(=O)N1CCC[C@H]1C(=O)N[C@@H](CO)C(N)=O)[C@@H](C)O)C(C)C` [Example 77] (H-Y[Aib]EGT[Iva]ISDYSI[αMeL]LD[Orn]K([AEEA-AEEA-γGlu-C20 diacid])HQ[Aib]DFVE[4Pal]LLETGPSSGAPPPS-NH2), the values for the EC50 in assay [1], in assay [2] and in assay [3] were 0.0265 nM, above 5000 nM and 2660 nM, respectively.

With `CC[C@H](C)[C@H](NC(=O)[C@H](Cc1ccccc1)NC(=O)[C@@H](NC(=O)CNC(=O)[C@H](CCC(=O)O)NC(=O)C(C)(C)NC(=O)[C@@H](N)Cc1ccc(O)cc1)[C@@H](C)O)C(=O)N[C@@H](CO)C(=O)N[C@@H](CC(=O)O)C(=O)N[C@@H](Cc1ccc(O)cc1)C(=O)N[C@@H](CO)C(=O)N[C@H](C(=O)N[C@@](C)(CC(C)C)C(=O)N[C@@H](CC(C)C)C(=O)N[C@@H](CC(=O)O)C(=O)N[C@@H](CCCCN)C(=O)N[C@@H](CCCCNC(=O)COCCOCCNC(=O)COCCOCCNC(=O)CC[C@H](NC(=O)CCCCCCCCCCCCCCCCCCC(=O)O)C(=O)O)C(=O)N[C@@H](Cc1c[nH]cn1)C(=O)N[C@@H](CCC(N)=O)C(=O)NC(C)(C)C(=O)N[C@@H](CC(=O)O)C(=O)N[C@@H](Cc1ccccc1)C(=O)N[C@H](C(=O)N[C@@H](CCC(=O)O)C(=O)N[C@@H](Cc1ccncc1)C(=O)N[C@@H](CC(C)C)C(=O)N[C@@H](CC(C)C)C(=O)N[C@@H](C)C(=O)N[C@@H](C)C(=O)NCC(=O)N1CCC[C@H]1C(=O)N[C@@H](CO)C(=O)N[C@@H](CO)C(=O)NCC(=O)N[C@@H](C)C(=O)N1CCC[C@H]1C(=O)N1CCC[C@H]1C(=O)N1CCC[C@H]1C(=O)N[C@@H](CO)C(N)=O)C(C)C)[C@@H](C)CC` [Example 78], the EC50 in assay [1] was 0.0125 nM; in assay [2] it was above 5000 nM; in assay [3], 3000 nM.

Regarding `CC[C@H](C)[C@H](NC(=O)[C@H](Cc1ccccc1)NC(=O)[C@@H](NC(=O)CNC(=O)[C@H](CCC(=O)O)NC(=O)C(C)(C)NC(=O)[C@@H](N)Cc1ccc(O)cc1)[C@@H](C)O)C(=O)N[C@@H](CO)C(=O)N[C@@H](CC(=O)O)C(=O)N[C@@H](Cc1ccc(O)cc1)C(=O)N[C@@H](CO)C(=O)N[C@H](C(=O)N[C@@](C)(CC(C)C)C(=O)N[C@@H](CC(C)C)C(=O)N[C@@H](CC(=O)O)C(=O)N[C@@H](CCCCN)C(=O)N[C@@H](CCCCNC(=O)COCCOCCNC(=O)COCCOCCNC(=O)CC[C@H](NC(=O)CCCCCCCCCCCCCCCCCCC(=O)O)C(=O)O)C(=O)N[C@@H](Cc1c[nH]cn1)C(=O)N[C@@H](CCC(N)=O)C(=O)NC(C)(C)C(=O)N[C@@H](CC(=O)O)C(=O)N[C@@H](Cc1ccccc1)C(=O)N[C@H](C(=O)N[C@@H](CCC(=O)O)C(=O)N[C@@H](Cc1ccncc1)C(=O)N[C@@H](CC(C)C)C(=O)N[C@@H](CC(C)C)C(=O)N[C@@H](C)C(=O)N[C@@H](CCC(N)=O)C(=O)NCC(=O)N1CCC[C@H]1C(=O)N[C@@H](CO)C(=O)N[C@@H](CO)C(=O)NCC(=O)N[C@@H](C)C(=O)N1CCC[C@H]1C(=O)N1CCC[C@H]1C(=O)N1CCC[C@H]1C(=O)N[C@@H](CO)C(N)=O)C(C)C)[C@@H](C)CC` [Example 79] (H-Y[Aib]EGTFISDYSI[αMeL]LDKK([AEEA-AEEA-γGlu-C20 diacid])HQ[Aib]DFVE[4Pal]LLAQGPSSGAPPPS-NH2), the figures for the EC50 in assay [1], in assay [2] and in assay [3] were 0.0316 nM, above 5000 nM and above 5000 nM, respectively.

For `CC[C@H](C)[C@H](NC(=O)[C@H](Cc1ccccc1)NC(=O)[C@@H](NC(=O)CNC(=O)[C@H](CCC(=O)O)NC(=O)C(C)(C)NC(=O)[C@@H](N)Cc1ccc(O)cc1)[C@@H](C)O)C(=O)N[C@@H](CO)C(=O)N[C@@H](CC(=O)O)C(=O)N[C@@H](Cc1ccc(O)cc1)C(=O)N[C@@H](CO)C(=O)N[C@H](C(=O)N[C@@](C)(CC(C)C)C(=O)N[C@@H](CC(C)C)C(=O)N[C@@H](CC(=O)O)C(=O)N[C@@H](CCCN)C(=O)N[C@@H](CCCCNC(=O)COCCOCCNC(=O)COCCOCCNC(=O)CC[C@H](NC(=O)CCCCCCCCCCCCCCCCCCC(=O)O)C(=O)O)C(=O)N[C@@H](Cc1c[nH]cn1)C(=O)N[C@@H](CCC(N)=O)C(=O)NC(C)(C)C(=O)N[C@@H](CC(=O)O)C(=O)N[C@@H](Cc1ccccc1)C(=O)N[C@H](C(=O)N[C@@H](CCC(=O)O)C(=O)N[C@@H](Cc1ccncc1)C(=O)N[C@@H](CC(C)C)C(=O)N[C@@H](CC(C)C)C(=O)N[C@@H](CCC(=O)O)C(=O)N[C@H](C(=O)NCC(=O)N1CCC[C@H]1C(=O)N[C@@H](CO)C(=O)N[C@@H](CO)C(=O)NCC(=O)N[C@@H](C)C(=O)N1CCC[C@H]1C(=O)N1CCC[C@H]1C(=O)N1CCC[C@H]1C(=O)N[C@@H](CO)C(N)=O)[C@@H](C)O)C(C)C)[C@@H](C)CC` [Example 80] (H-Y[Aib]EGTFISDYSI[αMeL]LD[Orn]K([AEEA-AEEA-γGlu-C20 diacid])HQ[Aib]DFVE[4Pal]LLETGPSSGAPPPS-NH2), the EC50 in assay [1] is 0.0777 nM; in assay [2] it was above 5000 nM; in assay [3], above 5000 nM.

On to `CC[C@H](C)[C@H](NC(=O)[C@H](Cc1ccccc1)NC(=O)[C@@H](NC(=O)CNC(=O)[C@H](CCC(=O)O)NC(=O)C(C)(C)NC(=O)[C@@H](N)Cc1ccc(O)cc1)[C@@H](C)O)C(=O)N[C@@H](CO)C(=O)N[C@@H](CC(=O)O)C(=O)N[C@@H](Cc1ccc(O)cc1)C(=O)N[C@@H](CO)C(=O)N[C@H](C(=O)N[C@@](C)(CC(C)C)C(=O)N[C@@H](CC(C)C)C(=O)N[C@@H](CC(=O)O)C(=O)N[C@@H](CCCN)C(=O)N[C@@H](CCCCNC(=O)COCCOCCNC(=O)COCCOCCNC(=O)CC[C@H](NC(=O)CCCCCCCCCCCCCCCCCCC(=O)O)C(=O)O)C(=O)N[C@@H](Cc1c[nH]cn1)C(=O)N[C@@H](CCC(N)=O)C(=O)NC(C)(C)C(=O)N[C@@H](CC(=O)O)C(=O)N[C@@H](Cc1ccccc1)C(=O)N[C@H](C(=O)N[C@@H](CCC(=O)O)C(=O)N[C@@H](Cc1ccncc1)C(=O)N[C@@H](CC(C)C)C(=O)N[C@@H](CC(C)C)C(=O)N[C@@H](CCC(=O)O)C(=O)N[C@@H](CCC(N)=O)C(=O)NCC(=O)N1CCC[C@H]1C(=O)N[C@@H](CO)C(=O)N[C@@H](CO)C(=O)NCC(=O)N[C@@H](C)C(=O)N1CCC[C@H]1C(=O)N1CCC[C@H]1C(=O)N1CCC[C@H]1C(=O)N[C@@H](CO)C(N)=O)C(C)C)[C@@H](C)CC` [Example 81] (H-Y[Aib]EGTFISDYSI[αMeL]LD[Orn]K([AEEA-AEEA-γGlu-C20 diacid])HQ[Aib]DFVE[4Pal]LLEQGPSSGAPPPS-NH2), for which the EC50 in assay [1] was 0.0282 nM; in assay [2], above 5000 nM; in assay [3], above 5000 nM.
